# Test results reported in paper PMC3823830 (Anesthesiology, 2013).
# Entries after “also recorded” stand apart in the source; their conditions may differ. Where two headings read alike, the source gives them in different places.
# Experiments:
# [1] = Compartmental pharmacokinetic modeling of morphine and morphine glucuronides; assay type: in vivo, human; settings: for Vd / clearance: both, human, plasma, intravenous; for Delay time (appearance of the metabolite in plasma): set at 0.01 h for M-3-G when not estimable; for VC (central volume): constrained to be the same in both sessions; for VSS of morphine glucuronide: fixed at 0.2 × body mass (kg)
# [2] = clinical; settings: both, human, plasma, iv, 0.1 mg/kg
# [3] = test system: healthy volunteers; settings: average; cyclosporine did not change this delay
# [4] = test system: healthy volunteers; experiment: Pharmacokinetic-pharmacodynamic effect-site modeling of miosis; settings: for Predicted maximum biophase concentration: model-predicted
# [5] = test system: healthy volunteers; settings: morphine 0.1 mg/kg
# [6] = test system: P-gp; settings: humans; cited from earlier work
# [7] = test system: P-gp; settings: rats; cited from earlier work
# [8] = test system: P-gp; settings: bovine brain capillary cell P-gp-mediated transport; cited from earlier work
# [9] = test system: human P-gp; settings: cited from earlier work
# [10] = test system: P-gp; settings: mouse, in vivo; cited from earlier work
# [11] = test system: P-gp; settings: cited from earlier work
# [12] = test system: mdr1a (murine MDR1 homologue); settings: cited from earlier work
# [13] = test system: P-gp; settings: P-gp-overexpressing cells; cited from earlier work
# [14] = cited from earlier work
# [15] = with cyclosporine, median (range)
smiles,measurement,setting,value
"CN1CC[C@]23c4c5ccc(O)c4O[C@H]2[C@@H](O[C@@H]2O[C@H](C(=O)O)[C@@H](O)[C@H](O)[C@H]2O)C=C[C@H]3[C@H]1C5 [Morphine-6-glucuronide, morphine-6-glucuronide]",Vd,[1],15 ± 2.5 L
same,Vd,[1]; 0.1 mg/kg,15 ± 2.5 L
same,clearance,"[1]; 0.1 mg/kg, CLEM-6-G (elimination clearance represented by metabolism to morphine-glucuronide), control, CLE × percent eliminated as glucuronide, mean ± SD",138 mL/min
same,clearance,"[1]; 0.1 mg/kg, ClE (glucuronide elimination clearance), control, median (range)",160 mL/min
same,clearance,"[1]; CLEM-6-G (elimination clearance represented by metabolism to morphine-glucuronide), with cyclosporine, CLE × percent eliminated as glucuronide, mean ± SD",103 mL/min
same,Fraction eliminated (percent of morphine dose eliminated as the glucuronide metabolite),"[1]; control, median (range), listed as Morphine-6- glucuronide",8.1 (4.9 to 12.5) %
same,Fraction eliminated (percent of morphine dose eliminated as the glucuronide metabolite),"[1]; control, median (range), listed as morphine-6-glucuronide",8.1%
same,Delay time (appearance of the metabolite in plasma),"[1]; control, median (range)",0.11 (0.04 to 0.34) h
same,Decrease in median glucuronide elimination clearance by cyclosporine,[1]; cyclosporine vs control,~25%
same,Fraction eliminated (percent of morphine dose eliminated as the glucuronide metabolite),"[1]; with cyclosporine, median (range), listed as Morphine-6- glucuronide",7.4 (3.3 to 16.6) ^& %
same,Fraction eliminated (percent of morphine dose eliminated as the glucuronide metabolite),"[1]; with cyclosporine, median (range), listed as morphine-6-glucuronide",7.4%
same,Delay time (appearance of the metabolite in plasma),[1]; [15],0.18 (0.06 to 0.37) h
same,AUC(0-inf),[2],117 ± 32 ng·h/mL
same,Cmax,[2],24.9 ± 5.2 ng/mL
same,half-life,[2],2.8 ± 1.2 h
same,Plasma AUC ratio (morphine glucuronide/morphine),"control, mean ± SD",0.88 ± 0.20
same,Plasma AUC ratio (morphine glucuronide/morphine),"with cyclosporine, mean ± SD",0.85 ± 0.20
CN1CC[C@]23c4c5ccc(O)c4O[C@H]2[C@@H](O)C=C[C@H]3[C@H]1C5 [Morphine],Time of maximum miosis after the end of the morphine infusion,[3],1.6 h
same,VC (central volume),"[1]; control, mean ± SD",21.5 ± 4.7 L
same,Average peripheral volume (VP) during cyclosporine treatment less than control,"[1]; cyclosporine vs control, not statistically significant",approximately 11%
same,VC (central volume),"[1]; with cyclosporine, mean ± SD",21.5 ± 4.7 L
same,Predicted maximum biophase concentration,[4]; after cyclosporine,41 ± 13 ng/mL
same,Maximum calculated effect site morphine concentration,[4]; control (abstract),7.6 ± 2.9 ng/mL
same,Predicted maximum biophase concentration,[4]; control,27 ± 11 ng/mL
same,Maximum calculated effect site morphine concentration,[4]; with cyclosporine (abstract),11.5 ± 3.7 ng/mL
same,Analgesic effect (thermal stimulus),[5],negligible analgesic effects
C/C=C/C[C@@H](C)C(=O)[C@H]1C(=O)N[C@@H](C(C)C)C(=O)N(C)CC(=O)N(C)[C@@H](CC(C)C)C(=O)N[C@@H](C(C)C)C(=O)N(C)[C@@H](CC(C)C)C(=O)N[C@@H](C)C(=O)N[C@H](C)C(=O)N(C)[C@@H](CC(C)C)C(=O)N(C)[C@@H](CC(C)C)C(=O)N(C)[C@@H](C(C)C)C(=O)N1C [PSC833],Effect on morphine-related respiratory depression (and drowsiness),[6],did not significantly change; also recorded: no effect
COc1cc2c(cc1OC)CN(CCc1ccc(NC(=O)c3cccc4c(=O)c5cccc(OC)c5[nH]c34)cc1)CC2 [GF120918],Increase in morphine antinociception,[7],approximately 3 fold
same,Effect on basolateral to apical flux of morphine,[8],abolished
C=C[C@H]1C[N@@]2CC[C@H]1C[C@@H]2[C@@H](O)c1ccnc2ccc(OC)cc12 [Quinidine],IC50,[9],34 µM
same,IC50,[10],36 µM
same,IC50,[11],3 µM
CN(C)C(=O)C(CCN1CCC(O)(c2ccc(Cl)cc2)CC1)(c1ccccc1)c1ccccc1 [loperamide],Transport ratio in mdr1-knockout mice vs control,[12],10.4
same,Efflux ratio,[13],> 20%
"CN1CC[C@]23c4c5ccc(O[C@@H]6O[C@H](C(=O)O)[C@@H](O)[C@H](O)[C@H]6O)c4O[C@H]2[C@@H](O)C=C[C@H]3[C@H]1C5 [Morphine-3-glucuronide, morphine-3-glucuronide]",Clinical effect,[14],no clinical effect
same,ClE (glucuronide elimination clearance),"[1]; control, median (range)",8.4 (5.3 to 12.4) L/h
same,Fraction eliminated (percent of morphine dose eliminated as the glucuronide metabolite),"[1]; control, median (range)",approximately 40%
same,Fraction eliminated (percent of morphine dose eliminated as the glucuronide metabolite),"[1]; control, median (range), […]",40.5 (27 to 52) %
same,Delay time (appearance of the metabolite in plasma),"[1]; control, median (range)",0.010 (0.003 to 0.09) h
same,CLEM-3-G (elimination clearance represented by metabolism to morphine-glucuronide),"[1]; control, CLE × percent eliminated as glucuronide, mean ± SD",39.0 ± 14.8 L/h
same,VSS of morphine glucuronide,"[1]; control, mean ± SD",15.0 ± 2.5 L
same,Decrease in median glucuronide elimination clearance by cyclosporine,[1]; cyclosporine vs control,more than 10%
same,ClE (glucuronide elimination clearance),[1]; [15],7.5 (3.7 to 14.0) ^@ L/h
same,Fraction eliminated (percent of morphine dose eliminated as the glucuronide metabolite),[1]; [15],approximately 40%
same,Fraction eliminated (percent of morphine dose eliminated as the glucuronide metabolite),"[1]; with cyclosporine, median (range), […]",43.4 (21 to 73) %
same,Delay time (appearance of the metabolite in plasma),[1]; [15],0.022 (0.003 to 0.13) ^& h
same,CLEM-3-G (elimination clearance represented by metabolism to morphine-glucuronide),"[1]; with cyclosporine, CLE × percent eliminated as glucuronide, mean ± SD",35.3 ± 13.4 L/h
same,VSS of morphine glucuronide,"[1]; with cyclosporine, mean ± SD",15.0 ± 2.5 L
same,Time of peak plasma concentration after the end of the morphine infusion,control,0.2 h
same,Plasma AUC ratio (morphine glucuronide/morphine),"control, mean ± SD",5.0 ± 1.2
same,Plasma Tmax,"control, relative to start of morphine infusion, mean ± SD",1.2 ± 0.2 h
same,Delay of time to peak plasma concentration by cyclosporine,cyclosporine vs control,0.4 h
same,Plasma AUC ratio (morphine glucuronide/morphine),"with cyclosporine, mean ± SD",5.3 ± 1.1
